Paper PMC4411090, “Activating the Wnt/β-Catenin Pathway for the Treatment of Melanoma – Application of LY2090314, a Novel Selective Inhibitor of Glycogen Synthase Kinase-3” (PLoS ONE, 2015)

Key:
GSK3β = biological target: T1, GSK3β (Homo sapiens, UniProt P49841); assay: cell-free kinase assay with recombinant enzyme and phosphopeptide substrate; format: biochemical
T1 construct: gene GSK3B; human recombinant

GSK3α = biological target: T2, GSK3α (Homo sapiens, UniProt P49840); assay: as above; format: biochemical
T2 construct: gene GSK3A; human recombinant
T2 sequence (P49840 2-483): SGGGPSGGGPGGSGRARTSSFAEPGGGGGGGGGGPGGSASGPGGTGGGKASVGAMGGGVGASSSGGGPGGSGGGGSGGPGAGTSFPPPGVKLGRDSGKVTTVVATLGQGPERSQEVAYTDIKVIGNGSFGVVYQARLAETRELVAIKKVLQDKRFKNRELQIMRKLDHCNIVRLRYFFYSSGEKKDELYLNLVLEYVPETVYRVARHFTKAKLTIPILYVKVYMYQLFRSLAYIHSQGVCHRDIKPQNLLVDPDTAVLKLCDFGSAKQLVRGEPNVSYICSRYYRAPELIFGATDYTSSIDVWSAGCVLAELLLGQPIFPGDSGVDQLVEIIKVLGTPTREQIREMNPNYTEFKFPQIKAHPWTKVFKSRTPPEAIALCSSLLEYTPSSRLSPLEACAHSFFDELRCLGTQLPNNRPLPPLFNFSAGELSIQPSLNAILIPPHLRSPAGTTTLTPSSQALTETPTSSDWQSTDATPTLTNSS

T1 sequence (P49841 whole entry): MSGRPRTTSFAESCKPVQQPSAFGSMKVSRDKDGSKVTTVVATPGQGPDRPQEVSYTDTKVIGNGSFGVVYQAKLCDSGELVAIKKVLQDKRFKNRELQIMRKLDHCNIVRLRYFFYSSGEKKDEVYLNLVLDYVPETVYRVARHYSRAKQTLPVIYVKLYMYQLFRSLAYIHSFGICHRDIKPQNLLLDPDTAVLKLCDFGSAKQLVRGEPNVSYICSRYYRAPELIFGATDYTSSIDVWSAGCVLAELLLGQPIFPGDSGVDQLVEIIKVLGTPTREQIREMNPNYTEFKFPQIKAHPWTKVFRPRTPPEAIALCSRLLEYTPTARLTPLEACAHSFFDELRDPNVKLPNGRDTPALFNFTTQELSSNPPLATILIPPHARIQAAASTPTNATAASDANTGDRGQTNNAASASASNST

## O=C1NC(=O)C(c2cnc3ccccn23)=C1c1cn2c3c(cc(F)cc13)CN(C(=O)N1CCCCC1)CC2 [LY2090314]
GSK3β
  IC50: 0.9 nM
GSK3α
  IC50: 1.5 nM
